Measurements taken from paper PMC12254823 (Acta Pharmaceutica Sinica. B, 2025).
Where “and” joins values, the source holds several entries; their conditions need not be identical. Equal values may be shown once. Read-outs that look alike come from different tables or passages of the source.

Key:
A/WSN/33(H1N1) virus = experiment: microbe, parasite or virus in culture; assay type: cell-based, influenza A virus; settings: for inhibition at 100 µM: read-out: %-inhibition in viral yield reduction assay screening; for EC50: read-out: EC50 viral yield assay
in vitro = settings: dog
A/HK/1/68(H3N2) = experiment: microbe, parasite or virus in culture; assay type: cell-based; settings: Influenza A virus, H3N2, read-out: EC50 viral yield reduction assay
[1] = system: A/California/7/09(H1N1pdm); experiment: microbe, parasite or virus in culture; assay type: cell-based; settings: Influenza A virus, read-out: EC50 viral yield reduction assay
B/Florida/04/2006 = experiment: microbe, parasite or virus in culture; assay type: cell-based; settings: Influenza B virus, read-out: EC50 viral yield reduction assay
[2] = system: H5 PA-PB1 heterodimeric complex; assay type: biochemical, influenza A virus
H1 polymerase = H1 polymerase (Influenza A virus, UniProt P15659); experiment: cell-based; design: species or system A/WSN/33(H1N1); settings: EC50 minigenome luciferase reporter assay
[3] = Influenza A virus, H1N1|WSN, MDCK

Compound	inhibition at 100 µM (A/WSN/33(H1N1) virus; [3]) [%]	CC50 (in vitro) [µM]	other results
Cc1ccccc1NCC(=O)Nc1ccccc1C(=O)NCc1cccc2cn[nH]c12 [Compound 1, N-[(1H-Indazol-7-yl)methyl]-2-[2-(o-tolylamino)acetamido]benzamide]	25	> 100	–
Cc1ccc(NCC(=O)Nc2ccccc2C(=O)NCc2cccc3cn[nH]c23)cc1 [Compound 2, N-[(1H-Indazol-7-yl)methyl]-2-[2-(p-tolylamino)acetamido]benzamide]	10.2	> 100	–
Cc1cccc(NCC(=O)Nc2ccccc2C(=O)NCc2cccc3cn[nH]c23)c1 [Compound 3, N-[(1H-Indazol-7-yl)methyl]-2-[2-(m-tolylamino)acetamido]benzamide]	18.6	> 100	–
O=C(CNC1CCCCC1)Nc1ccccc1C(=O)NCc1cccc2cn[nH]c12 [Compound 4, N-[(1H-Indazol-7-yl)methyl]-2-[2-(cyclohexylamino)acetamido]benzamide]	< 2	> 100	–
O=C(CN1CCSCC1)Nc1ccccc1C(=O)NCc1cccc2cn[nH]c12 [Compound 5, N-[(1H-Indazol-7-yl)methyl]-2-[2-(thiomorpholin-4-yl)acetamido]benzamide]	< 2	> 100	–
O=C(CNc1ccc(Cl)cc1)Nc1ccccc1C(=O)NCc1cccc2cn[nH]c12 [Compound 6, N-[(1H-Indazol-7-yl)methyl]-2-{2-[(4-chlorophenyl)amino]acetamido}benzamide]	< 2	> 100	–
O=C(CNCc1ccccc1)Nc1ccccc1C(=O)NCc1cccc2cn[nH]c12 [Compound 7, N-[(1H-Indazol-7-yl)methyl]-2-[2-(benzylamino)acetamido]benzamide]	< 2	> 50	–
O=C(CN1CCOCC1)Nc1ccccc1C(=O)NCc1cccc2cn[nH]c12 [Compound 8, N-[(1H-Indazol-7-yl)methyl]-2-(2-morpholinoacetamido)benzamide]	< 2	> 100	–
O=C(/C=C/c1ccc(Br)cc1)NCc1cccc2cn[nH]c12 [Compound 9, (E)-N-[(1H-Indazol-7-yl)methyl]-3-(4-bromophenyl)acrylamide]	< 2	> 100	–
O=C(/C=C/c1ccc(Cl)cc1)NCc1cccc2cn[nH]c12 [Compound 10, (E)-N-[(1H-Indazol-7-yl)methyl]-3-(4-chlorophenyl)acrylamide]	< 2	> 100	–
O=C(/C=C/c1ccc(C(F)(F)F)cc1)NCc1cccc2cn[nH]c12 [Compound 11, (E)-N-[(1H-Indazol-7-yl)methyl]-3-[4-(trifluoromethyl)phenyl]acrylamide]	< 2	> 100	–
O=C(/C=C/c1ccc([N+](=O)[O-])cc1)NCc1cccc2cn[nH]c12 [Compound 12, (E)-N-[(1H-Indazol-7-yl)methyl]-3-(4-nitrophenyl)acrylamide]	37.3	> 100	–
O=C(/C=C/c1ccc(F)cc1)NCc1cccc2cn[nH]c12 [Compound 13, (E)-N-[(1H-Indazol-7-yl)methyl]-3-(4-fluorophenyl)acrylamide]	30.5	> 100	–
COc1ccc(/C=C/C(=O)NCc2cccc3cn[nH]c23)cc1 [Compound 14, (E)-N-[(1H-Indazol-7-yl)methyl]-3-(4-methoxyphenyl)acrylamide]	48.4	> 100	–
O=C(/C=C/c1ccc(F)c(F)c1)NCc1cccc2cn[nH]c12 [Compound 15, (E)-N-[(1H-Indazol-7-yl)methyl]-3-(3,4-difluorophenyl)acrylamide]	44.1	> 100	–
O=C(/C=C/c1ccncc1)NCc1cccc2cn[nH]c12 [Compound 16, (E)-N-[(1H-Indazol-7-yl)methyl]-3-(pyridin-4-yl)acrylamide]	48.2	> 100	–
O=C(/C=C/c1ccco1)NCc1cccc2cn[nH]c12 [Compound 17, (E)-N-[(1H-Indazol-7-yl)methyl]-3-(furan-2-yl)acrylamide]	33.9	> 100	–

Compound	inhibition at 100 µM (A/WSN/33(H1N1) virus; [3]) [%]	CC50 (in vitro) [µM]	other results
O=C(/C=C/c1cccs1)NCc1cccc2cn[nH]c12 [Compound 18, (E)-N-[(1H-Indazol-7-yl)methyl]-3-(thiophen-2-yl)acrylamide]	< 2	> 100	–
S=C(NCc1cccc2cn[nH]c12)Nc1ccccc1 [Compound 19, 1-[(1H-Indazol-7-yl)methyl]-3-phenylthiourea]	25	> 100	–
Cc1ccc(NC(=S)NCc2cccc3cn[nH]c23)cc1 [Compound 20, 1-[(1H-Indazol-7-yl)methyl]-3-(p-tolyl)thiourea]	< 2	> 100	–
S=C(NCc1cccc2cn[nH]c12)Nc1cccc(Cl)c1 [Compound 21, 1-[(1H-Indazol-7-yl)methyl]-3-(3-chlorophenyl)thiourea]	37.5	> 25	–
S=C(NCc1cccc2cn[nH]c12)Nc1ccc(Cl)cc1 [Compound 22, 1-[(1H-Indazol-7-yl)methyl]-3-(4-chlorophenyl)thiourea]	16.9	> 100	–
S=C(NCc1cccc2cn[nH]c12)Nc1cccc(Cl)c1Cl [Compound 23, 1-[(1H-Indazol-7-yl)methyl]-3-(2,3-dichlorophenyl)thiourea]	< 2	> 100	–
COc1ccc(NC(=S)NCc2cccc3cn[nH]c23)cc1OC [Compound 24, 1-[(1H-Indazol-7-yl)methyl]-3-(3,4-dimethoxyphenyl)thiourea]	> 90	> 100	%-inhibition in viral yield reduction assay screening (A/WSN/33(H1N1) virus): 99.9%; EC50 (A/HK/1/68(H3N2)): 0.54 µM; EC50 [1]: 0.746 µM; EC50 (B/Florida/04/2006): 0.23 µM; PA-PB1 complex co-immunoprecipitated compared to DMSO control [2]: 64.5% ± 6.2% and 64.5%
S=C(NCc1cccc2cn[nH]c12)Nc1ccc(I)cc1 [Compound 25, 1-[(1H-Indazol-7-yl)methyl]-3-(4-iodophenyl)thiourea]	74.4	> 100	–
FC(F)(F)Oc1ccc(NC(=S)NCc2cccc3cn[nH]c23)cc1 [Compound 26, 1-[(1H-Indazol-7-yl)methyl]-3-[4-(trifluoromethoxy)phenyl]thiourea]	< 2	> 100	–
FC(F)(F)c1ccc(NC(=S)NCc2cccc3cn[nH]c23)cc1 [Compound 27, 1-[(1H-Indazol-7-yl)methyl]-3-[4-(trifluoromethyl)phenyl]thiourea]	> 90	> 100	%-inhibition in viral yield reduction assay screening (A/WSN/33(H1N1) virus): 94.9%; selectivity index (CC50/EC50) (A/WSN/33(H1N1) virus): > 12.5; EC50 (A/WSN/33(H1N1) virus; [3]): 8.03 µM; EC50 (A/WSN/33(H1N1) virus): 8.03 µM
S=C(NCc1ccccc1)NCc1cccc2cn[nH]c12 [Compound 28, 1-[(1H-Indazol-7-yl)methyl]-3-benzylthiourea]	< 2	> 100	–
Fc1ccc(NC(=S)NCc2cccc3cn[nH]c23)cc1 [Compound 29, 1-[(1H-Indazol-7-yl)methyl]-3-(4-fluorophenyl)thiourea]	< 2	> 100	–
S=C(NCc1cccc2cn[nH]c12)Nc1ccc(Br)cc1 [Compound 30, 1-[(1H-Indazol-7-yl)methyl]-3-(4-bromophenyl)thiourea]	< 2	> 100	–
N#Cc1ccc(NC(=S)NCc2cccc3cn[nH]c23)cc1 [Compound 31, 1-[(1H-indazol-7-yl)methyl]-3-(4-cyanophenyl)thiourea]	> 90	> 25	%-inhibition in viral yield reduction assay screening (A/WSN/33(H1N1) virus): 99.9%; selectivity index (CC50/EC50) (A/WSN/33(H1N1) virus): > 1.73; EC50 (A/WSN/33(H1N1) virus; [3]): 14.6 µM; EC50 (A/WSN/33(H1N1) virus): 14.6 µM
COC(=O)OCOc1c2n(ccc1=O)N([C@@H]1c3ccccc3SCc3c1ccc(F)c3F)[C@@H]1COCCN1C2=O [baloxavir marboxil, reference compound]	–	–	EC50 (A/WSN/33(H1N1) virus): 0.00095 µM
NC(=O)c1nc(F)c[nH]c1=O [favipiravir, reference compound]	–	–	EC50 (A/WSN/33(H1N1) virus): 1.57 µM; EC50 (H1 polymerase): 0.441 µM
